From patent publication US20050282743A1, “Molecular interactions in cells” (Arbor Vita Corporation, priority 2001, published 2005)
pKd: −log10 of the molar value. Read-outs that look alike come from different tables or passages of the source. Values belong to the compound of their own block, whether it stands above or below them. Ends that are not written are not given here. Peptide text beside a SMILES is read from it. * marks the point of attachment. Biotin = O=C1N[C@H]2[C@H](CS[C@H]2CCCCC(=O)*)N1

Tests used:
Format in all cases: binding
[1] = target: T1, PDZ protein (GST-PDZ fusion) (Homo sapiens, UniProt Q9Y6N9); assay: G' assay (10 uM PL peptide), results of TABLE 7 and TABLE 12; conditions: PDZ PDZ-73, PDZ Domain 2
T1 construct: made in house; host or cells: E. coli (DH5alpha, BL21 or JM109)
Outline: (§1)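 Biotinylated PL peptides at 10 uM (vs 20 uM in G^0 assay) bound to GST-PDZ fusions; PDZ protein at 5 ug/ml unless another concentration listed. Bound peptide read as A450 nm, classified 0–5 (0 = A450 0; 5 = A450 >4 repeated).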

[2] = target: T2, PDZ-domain polypeptide (GST/PDZ fusion protein) (Homo sapiens, UniProt Q15700); assay: Apparent affinity (Kd) by titration of PL peptide in the G assay; conditions: PDZ DLG2, PDZ Domain 2
T2 construct: made in house; host or cells: E. coli (DH5alpha, BL21 or JM109)
Outline: (§2)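 A fixed concentration of GST/PDZ fusion protein, 5 ug/ml by default, was mixed in solution with increasing labeled PL peptide (e.g. 0.1 uM-1 mM). Reaction times ranged from 10 minutes to 2 days at 4-37° C. Complexes were separated from free peptide and detected via the label as in the G assay, apparent affinity coming from the saturating concentration.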

[3] = target: T3, PDZ protein (GST-PDZ fusion) (Homo sapiens, UniProt O00560); assay: G' assay (10 uM PL peptide), results of TABLE 7 and TABLE 12; conditions: PDZ hSyntenin, PDZ Domain 1
T3 construct: made in house; host or cells: E. coli (DH5alpha, BL21 or JM109)
T3 sequence (O00560 1-298): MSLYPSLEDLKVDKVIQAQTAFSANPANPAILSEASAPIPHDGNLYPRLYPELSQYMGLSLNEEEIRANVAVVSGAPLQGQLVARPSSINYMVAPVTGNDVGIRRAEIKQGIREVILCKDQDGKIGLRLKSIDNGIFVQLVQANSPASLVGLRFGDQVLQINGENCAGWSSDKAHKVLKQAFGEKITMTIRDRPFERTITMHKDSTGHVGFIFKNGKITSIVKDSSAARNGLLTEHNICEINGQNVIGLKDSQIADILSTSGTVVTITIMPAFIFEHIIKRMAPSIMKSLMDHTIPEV
Outline: as §1

[4] = target: T4, PDZ-domain polypeptide (GST/PDZ fusion protein) (Homo sapiens, UniProt Q9NRD5); assay: Apparent affinity (Kd) by titration of PL peptide in the G assay; conditions: PDZ PICK1, PDZ Domain 1
T4 construct: made in house; host or cells: E. coli (DH5alpha, BL21 or JM109)
Outline: as §2

[5] = target: T5, PDZ-domain polypeptide (GST/PDZ fusion protein) (Homo sapiens, UniProt Q8TEW0); assay: as above; conditions: PDZ PAR3, PDZ Domain 3
T5 construct: made in house; host or cells: E. coli (DH5alpha, BL21 or JM109)
Outline: as §2

[6] = target: T6, PDZ-domain polypeptide (GST/PDZ fusion protein) (Homo sapiens, UniProt Q12959); assay: as above
T6 construct: made in house; host or cells: E. coli (DH5alpha, BL21 or JM109)
Outline: as §2

[7] = target: T7, PDZ-domain polypeptide (GST/PDZ fusion protein) (Homo sapiens, UniProt P78352); assay: as above
T7 construct: made in house; host or cells: E. coli (DH5alpha, BL21 or JM109)
Outline: as §2

[8] = read-out: Peptide Optimal Conc (Kd by titration of the PL peptide)
[9] = Peptide Optimal Conc (Kd by titration of the PL peptide)

T6 sequence (Q12959 whole entry, the tested form may be a part): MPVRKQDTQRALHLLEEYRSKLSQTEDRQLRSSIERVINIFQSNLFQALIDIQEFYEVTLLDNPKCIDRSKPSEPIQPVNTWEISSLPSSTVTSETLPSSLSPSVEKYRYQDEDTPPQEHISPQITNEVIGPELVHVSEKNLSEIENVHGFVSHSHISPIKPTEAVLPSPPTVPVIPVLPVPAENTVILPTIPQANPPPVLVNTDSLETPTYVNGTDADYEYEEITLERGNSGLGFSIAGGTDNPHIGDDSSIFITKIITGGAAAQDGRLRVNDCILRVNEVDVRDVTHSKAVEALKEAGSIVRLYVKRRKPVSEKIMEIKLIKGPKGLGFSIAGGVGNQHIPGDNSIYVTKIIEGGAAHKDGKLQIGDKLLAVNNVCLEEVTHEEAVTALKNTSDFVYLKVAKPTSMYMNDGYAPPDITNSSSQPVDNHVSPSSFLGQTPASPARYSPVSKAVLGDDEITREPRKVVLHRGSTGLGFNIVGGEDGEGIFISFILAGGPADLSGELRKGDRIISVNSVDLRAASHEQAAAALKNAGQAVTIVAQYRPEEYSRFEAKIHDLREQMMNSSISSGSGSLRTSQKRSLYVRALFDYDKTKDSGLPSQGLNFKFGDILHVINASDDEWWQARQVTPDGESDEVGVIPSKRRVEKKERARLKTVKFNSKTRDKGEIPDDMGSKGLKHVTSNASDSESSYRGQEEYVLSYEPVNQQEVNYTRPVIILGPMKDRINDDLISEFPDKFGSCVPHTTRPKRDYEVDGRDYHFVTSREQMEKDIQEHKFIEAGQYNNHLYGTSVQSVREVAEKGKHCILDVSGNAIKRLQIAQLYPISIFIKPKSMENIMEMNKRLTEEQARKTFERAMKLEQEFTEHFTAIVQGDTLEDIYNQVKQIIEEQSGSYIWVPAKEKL
T4 sequence (Q9NRD5 whole entry, the tested form may be a part): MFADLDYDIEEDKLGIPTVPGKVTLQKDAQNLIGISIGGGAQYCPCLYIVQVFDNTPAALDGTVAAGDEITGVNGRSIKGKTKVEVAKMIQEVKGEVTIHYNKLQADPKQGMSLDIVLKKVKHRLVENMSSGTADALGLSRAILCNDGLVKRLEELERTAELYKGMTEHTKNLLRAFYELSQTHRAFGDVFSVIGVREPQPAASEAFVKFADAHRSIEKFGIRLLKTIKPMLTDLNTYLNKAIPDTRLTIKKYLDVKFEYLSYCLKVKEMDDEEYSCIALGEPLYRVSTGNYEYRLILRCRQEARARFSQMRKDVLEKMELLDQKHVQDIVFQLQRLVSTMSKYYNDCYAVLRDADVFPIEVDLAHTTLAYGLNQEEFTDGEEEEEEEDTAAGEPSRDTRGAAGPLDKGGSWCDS
T7 sequence (P78352 whole entry, the tested form may be a part): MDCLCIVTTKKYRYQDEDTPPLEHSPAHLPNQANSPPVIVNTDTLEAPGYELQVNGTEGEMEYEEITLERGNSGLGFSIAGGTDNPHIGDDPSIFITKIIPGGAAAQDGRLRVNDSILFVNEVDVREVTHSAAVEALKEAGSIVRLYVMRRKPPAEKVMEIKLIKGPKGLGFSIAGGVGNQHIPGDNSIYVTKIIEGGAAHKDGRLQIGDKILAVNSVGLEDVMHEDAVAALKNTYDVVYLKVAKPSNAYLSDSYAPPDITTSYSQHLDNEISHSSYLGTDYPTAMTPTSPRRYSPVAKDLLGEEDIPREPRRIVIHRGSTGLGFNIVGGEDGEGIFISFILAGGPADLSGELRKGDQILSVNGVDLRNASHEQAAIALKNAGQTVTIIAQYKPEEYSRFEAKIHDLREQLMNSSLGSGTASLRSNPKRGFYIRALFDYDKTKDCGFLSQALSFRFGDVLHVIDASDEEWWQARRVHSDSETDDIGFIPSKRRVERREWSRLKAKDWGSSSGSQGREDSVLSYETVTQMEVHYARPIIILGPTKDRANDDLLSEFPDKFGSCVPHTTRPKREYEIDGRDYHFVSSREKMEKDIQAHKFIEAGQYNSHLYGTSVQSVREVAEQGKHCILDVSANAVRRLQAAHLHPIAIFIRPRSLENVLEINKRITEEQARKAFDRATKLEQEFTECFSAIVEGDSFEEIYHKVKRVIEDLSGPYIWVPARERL
T2 sequence (Q15700 whole entry, the tested form may be a part): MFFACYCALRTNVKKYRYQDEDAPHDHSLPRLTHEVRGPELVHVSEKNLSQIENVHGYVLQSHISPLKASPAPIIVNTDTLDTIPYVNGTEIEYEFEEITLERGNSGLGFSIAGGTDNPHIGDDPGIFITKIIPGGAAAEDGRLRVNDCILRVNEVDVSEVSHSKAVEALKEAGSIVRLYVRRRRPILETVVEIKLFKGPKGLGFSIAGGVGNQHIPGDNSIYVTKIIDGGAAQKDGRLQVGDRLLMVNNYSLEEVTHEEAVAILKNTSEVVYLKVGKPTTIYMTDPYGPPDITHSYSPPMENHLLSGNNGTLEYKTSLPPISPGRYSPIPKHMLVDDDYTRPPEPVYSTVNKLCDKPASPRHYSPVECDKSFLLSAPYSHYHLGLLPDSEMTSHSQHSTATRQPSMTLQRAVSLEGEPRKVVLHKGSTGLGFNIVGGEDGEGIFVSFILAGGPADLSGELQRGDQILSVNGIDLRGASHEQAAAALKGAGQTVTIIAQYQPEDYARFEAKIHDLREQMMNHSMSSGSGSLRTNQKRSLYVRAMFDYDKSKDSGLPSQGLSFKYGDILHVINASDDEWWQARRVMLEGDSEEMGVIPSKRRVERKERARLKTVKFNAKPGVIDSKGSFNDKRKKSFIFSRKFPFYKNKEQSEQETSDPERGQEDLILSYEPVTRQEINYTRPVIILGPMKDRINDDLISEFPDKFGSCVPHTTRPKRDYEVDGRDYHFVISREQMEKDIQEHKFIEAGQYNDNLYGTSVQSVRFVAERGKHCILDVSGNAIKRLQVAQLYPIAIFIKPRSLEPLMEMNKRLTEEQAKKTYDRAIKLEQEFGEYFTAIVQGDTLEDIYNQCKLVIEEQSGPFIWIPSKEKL
T5 sequence (Q8TEW0 whole entry, the tested form may be a part): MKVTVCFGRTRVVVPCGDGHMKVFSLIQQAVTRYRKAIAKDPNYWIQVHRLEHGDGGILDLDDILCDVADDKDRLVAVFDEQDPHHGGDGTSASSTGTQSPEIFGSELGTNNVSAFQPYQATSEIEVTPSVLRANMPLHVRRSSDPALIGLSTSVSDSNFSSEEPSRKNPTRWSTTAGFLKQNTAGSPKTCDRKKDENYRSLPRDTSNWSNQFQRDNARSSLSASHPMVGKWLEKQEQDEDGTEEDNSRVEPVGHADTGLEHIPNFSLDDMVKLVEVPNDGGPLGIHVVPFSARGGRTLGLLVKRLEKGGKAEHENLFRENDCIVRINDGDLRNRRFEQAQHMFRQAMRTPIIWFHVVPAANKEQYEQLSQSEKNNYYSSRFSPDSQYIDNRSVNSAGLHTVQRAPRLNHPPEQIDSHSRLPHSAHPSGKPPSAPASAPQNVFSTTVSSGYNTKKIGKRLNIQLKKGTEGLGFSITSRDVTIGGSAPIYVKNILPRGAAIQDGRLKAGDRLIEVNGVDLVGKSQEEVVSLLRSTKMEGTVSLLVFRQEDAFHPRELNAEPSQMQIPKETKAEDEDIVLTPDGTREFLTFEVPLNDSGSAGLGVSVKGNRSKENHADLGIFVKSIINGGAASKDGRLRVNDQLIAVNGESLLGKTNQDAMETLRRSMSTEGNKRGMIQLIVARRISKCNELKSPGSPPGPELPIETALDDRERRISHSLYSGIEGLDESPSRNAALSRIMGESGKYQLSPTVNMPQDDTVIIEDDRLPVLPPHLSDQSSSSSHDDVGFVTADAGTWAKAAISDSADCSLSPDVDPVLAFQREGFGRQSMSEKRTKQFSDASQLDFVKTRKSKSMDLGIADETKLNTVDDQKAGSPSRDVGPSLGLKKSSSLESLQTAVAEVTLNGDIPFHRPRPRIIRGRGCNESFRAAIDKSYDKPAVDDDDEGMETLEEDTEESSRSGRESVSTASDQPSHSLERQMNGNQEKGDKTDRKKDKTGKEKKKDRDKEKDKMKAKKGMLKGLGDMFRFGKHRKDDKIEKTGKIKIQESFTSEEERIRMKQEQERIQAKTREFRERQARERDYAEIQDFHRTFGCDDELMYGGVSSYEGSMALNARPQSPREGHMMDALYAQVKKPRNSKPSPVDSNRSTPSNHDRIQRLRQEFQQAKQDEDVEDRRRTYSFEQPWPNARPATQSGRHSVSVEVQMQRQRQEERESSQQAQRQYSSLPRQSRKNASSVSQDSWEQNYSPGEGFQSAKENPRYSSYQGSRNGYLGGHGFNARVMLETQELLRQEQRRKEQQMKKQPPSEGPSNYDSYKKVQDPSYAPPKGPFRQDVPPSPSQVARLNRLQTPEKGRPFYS
T1 sequence (Q9Y6N9 whole entry, the tested form may be a part): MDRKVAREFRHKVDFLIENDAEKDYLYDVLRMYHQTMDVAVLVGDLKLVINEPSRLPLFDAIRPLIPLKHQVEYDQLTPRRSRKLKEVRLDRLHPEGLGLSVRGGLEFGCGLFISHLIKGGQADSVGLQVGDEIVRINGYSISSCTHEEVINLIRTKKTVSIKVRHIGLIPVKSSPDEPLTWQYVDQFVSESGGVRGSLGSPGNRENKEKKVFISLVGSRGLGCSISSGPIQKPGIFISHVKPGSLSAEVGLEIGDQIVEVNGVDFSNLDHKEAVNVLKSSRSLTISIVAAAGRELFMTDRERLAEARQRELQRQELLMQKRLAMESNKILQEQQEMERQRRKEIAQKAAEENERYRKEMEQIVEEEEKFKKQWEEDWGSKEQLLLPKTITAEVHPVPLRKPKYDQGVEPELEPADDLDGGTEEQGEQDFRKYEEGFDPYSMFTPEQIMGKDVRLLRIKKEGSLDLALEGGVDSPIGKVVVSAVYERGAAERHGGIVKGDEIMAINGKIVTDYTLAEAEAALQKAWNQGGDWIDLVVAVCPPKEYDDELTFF

Compound: CSCC[C@H](NC(=O)[C@H](C)NC(=O)[C@H](CCCNC(=N)N)NC(=O)CNC(=O)[C@@H](NC(=O)[C@H](Cc1c[nH]c2ccccc12)NC(=O)[C@H](CCCNC(=N)N)NC(=O)CNC(=O)CCCC[C@@H]1SC[C@@H]2NC(=O)N[C@@H]21)[C@@H](C)O)C(=O)N[C@@H](CO)C(=O)N[C@@H](C)C(=O)N[C@@H](Cc1c[nH]c2ccccc12)C(=O)N[C@@H](CCCCN)C(=O)N1CCC[C@H]1C(=O)N[C@H](C(=O)N[C@@H](CCCNC(=N)N)C(=O)N[C@@H](CCCNC(=N)N)C(=O)N[C@@H](CCC(=O)O)C(=O)N[C@H](C(=O)N[C@@H](CCC(=O)O)C(=O)N[C@H](C(=O)O)C(C)C)[C@@H](C)O)[C@@H](C)O [HPV E6 #35 (modified)] (Biotin-GRWTGRAMSAWKPTRRETEV-OH; C-terminus assumed)
Classification ([1]; PL peptide 10 uM): 2 (A450 nm 1-2) | pKd [2, 8]: 6.70

Compound: CC[C@H](C)[C@H](NC(=O)[C@H](C)NC(=O)[C@H](CC(C)C)NC(=O)[C@H](Cc1c[nH]c2ccccc12)NC(=O)[C@H](Cc1c[nH]cn1)NC(=O)[C@H](CCC(N)=O)NC(=O)[C@H](CC(C)C)NC(=O)[C@H](CCC(N)=O)NC(=O)[C@H](Cc1ccccc1)NC(=O)[C@H](CCC(N)=O)NC(=O)[C@H](CCCNC(=N)N)NC(=O)[C@@H](NC(=O)[C@H](CC(=O)O)NC(=O)[C@H](CCCNC(=N)N)NC(=O)[C@H](CCC(N)=O)NC(=O)[C@H](C)NC(=O)[C@@H](NC(=O)[C@H](CC(C)C)NC(=O)[C@H](Cc1c[nH]cn1)NC(=O)[C@H](Cc1c[nH]cn1)NC(=O)CCCC[C@@H]1SC[C@@H]2NC(=O)N[C@@H]21)C(C)C)[C@@H](C)CC)C(=O)O [noradrenaline transporter] (Biotin-HHLVAQRDIRQFQLQHWLAI-OH; C-terminus assumed)
pKd [5, 9]: 6.22 | pKd [4, 9]: 6.00

Compound: CC[C@H](C)[C@H](NC(=O)[C@H](Cc1ccc(O)cc1)NC(=O)[C@H](CC(C)C)NC(=O)[C@H](CCC(N)=O)NC(=O)[C@H](Cc1c[nH]cn1)NC(=O)[C@H](CO)NC(=O)[C@H](C)NC(=O)[C@H](CC(C)C)NC(=O)[C@@H](NC(=O)[C@H](CC(=O)O)NC(=O)[C@H](CCSC)NC(=O)[C@H](Cc1ccccc1)NC(=O)[C@@H]1CCCN1C(=O)[C@H](CCCNC(=N)N)NC(=O)[C@@H](NC(=O)[C@H](CC(C)C)NC(=O)[C@H](CC(N)=O)NC(=O)[C@H](CC(=O)O)NC(=O)[C@@H](NC(=O)[C@H](CO)NC(=O)CCCC[C@@H]1SC[C@@H]2NC(=O)N[C@@H]21)[C@@H](C)O)C(C)C)[C@@H](C)O)C(=O)O [presenilin-2] (Biotin-STDNLVRPFMDTLASHQLYI-OH; C-terminus assumed)
pKd ([5]; titration of the PL peptide, read-out: Peptide Optimal Conc (Kd, dissociation constant)): 5.70

Compound: CC[C@H](C)[C@H](NC(=O)[C@H](CO)NC(=O)[C@@H](NC(=O)[C@H](Cc1ccccc1)NC(=O)[C@H](CO)NC(=O)CCCC[C@@H]1SC[C@@H]2NC(=O)N[C@@H]21)[C@@H](C)O)C(=O)N[C@@H](CC(C)C)C(=O)N[C@H](C(=O)N[C@@H](CS)C(=O)N[C@@H](Cc1c[nH]cn1)C(=O)N[C@@H](CCC(N)=O)C(=O)N[C@@H](CCCNC(=N)N)C(=O)N[C@@H](CCCNC(=N)N)C(=O)N[C@H](C(=O)N[C@@H](CCC(N)=O)C(=O)N[C@@H](CCCNC(=N)N)C(=O)N[C@@H](CCCCN)C(=O)N[C@@H](CCC(=O)O)C(=O)N[C@H](C(=O)N[C@H](C(=O)N[C@@H](C)C(=O)O)C(C)C)[C@@H](C)O)[C@@H](C)O)[C@@H](C)O [GluR5-2 (rat)]
pKd ([7]; PDZ PSD95, PDZ Domain 3, titration of the PL peptide, read-out: Peptide Optimal Conc (Kd, dissociation constant)): 7.00

Compound: CC[C@H](C)[C@H](NC(=O)[C@H](CCCCN)NC(=O)[C@@H](NC(=O)[C@H](CO)NC(=O)[C@@H]1CCCN1C(=O)[C@H](Cc1ccccc1)NC(=O)[C@@H](NC(=O)[C@@H](NC(=O)[C@H](CCCNC(=N)N)NC(=O)[C@H](CCC(=O)O)NC(=O)[C@H](CC(C)C)NC(=O)[C@H](CC(C)C)NC(=O)[C@H](CC(C)C)NC(=O)[C@@H](NC(=O)CNC(=O)[C@@H](NC(=O)CCCC[C@@H]1SC[C@@H]2NC(=O)N[C@@H]21)C(C)C)[C@@H](C)O)C(C)C)[C@@H](C)CC)C(C)C)C(=O)N[C@@H](C)C(=O)N[C@H](C(=O)N[C@@H](CC(C)C)C(=O)N[C@H](C(=O)O)C(C)C)[C@@H](C)O [Adenovirus E4 Type9]
pKd ([7]; PDZ PSD95, PDZ Domain 1, Protein Optimal Conc 5, read-out: Peptide Optimal Conc (Kd by titration of the PL peptide)): 7.00 | pKd ([6]; PDZ DLG1, PDZ Domain 1, Protein Optimal Conc 0.5, read-out: Peptide Optimal Conc (Kd by titration of the PL peptide)): 7.00 | pKd ([6]; PDZ DLG1, PDZ Domain 2, Protein Optimal Conc 0.3, read-out: Peptide Optimal Conc (Kd by titration of the PL peptide)): 7.52 | pKd ([2]; Protein Optimal Conc 0.5): 7.30

Continued, values first:

Classification [1]: 1 (A450 nm 0-1)
Compound: CC[C@H](C)[C@H](NC(=O)CNC(=O)[C@H](CO)NC(=O)[C@H](Cc1ccccc1)NC(=O)[C@@H](NC(=O)[C@H](CS)NC(=O)CNC(=O)CNC(=O)[C@H](C)NC(=O)[C@@H]1CCCN1C(=O)[C@@H](NC(=O)[C@@H]1CCCN1C(=O)CCCC[C@@H]1SC[C@@H]2NC(=O)N[C@@H]21)[C@@H](C)CC)[C@@H](C)O)C(=O)N[C@@H](Cc1ccccc1)C(=O)N1CCC[C@H]1C(=O)N[C@H](C(=O)N[C@@H](CC(C)C)C(=O)N[C@H](C(=O)N[C@@H](CO)C(=O)N1CCC[C@H]1C(=O)N[C@@H](CC(C)C)C(=O)O)[C@@H](C)O)[C@@H](C)O [KIA 1481] (Biotin-PIPAGGCTFSGIFPTLTSPL-OH; C-terminus assumed)

Classification [3]: 2 (A450 nm 1-2)
Compound: KTMPAAMFRLLTGQETPLYI (Biotin-KTMPAAMFRLLTGQETPLYI) [MINT-2]

pKd [4, 8]: 6.05
Compound: CC(C)C[C@H](NC(=O)[C@H](Cc1c[nH]c2ccccc12)NC(=O)[C@H](Cc1c[nH]cn1)NC(=O)[C@H](CCCNC(=N)N)NC(=O)[C@H](CC(C)C)NC(=O)[C@@H](NC(=O)[C@H](Cc1ccccc1)NC(=O)[C@H](CCC(N)=O)NC(=O)[C@H](CCCNC(=N)N)NC(=O)[C@@H](NC(=O)[C@H](CCC(=O)O)NC(=O)CNC(=O)[C@H](CCCNC(=N)N)NC(=O)[C@H](CC(=O)O)NC(=O)[C@@H](NC(=O)[C@H](CC(C)C)NC(=O)[C@H](CCC(=O)O)NC(=O)[C@H](CCCNC(=N)N)NC(=O)CCCC[C@@H]1SC[C@@H]2NC(=O)N[C@@H]21)C(C)C)C(C)C)[C@@H](C)O)C(=O)N[C@@H](CCCCN)C(=O)N[C@H](C(=O)O)C(C)C [Dopamine transporter (Na+-dependent)] (Biotin-RELVDRGEVRQFTLRHWLKV-OH; C-terminus assumed)

Classification [3]: 2 (A450 nm 1-2)
Compound: ELLQFCRTPNPALKNGQYWV (Biotin-ELLQFCRTPNPALKNGQYWV)

pKd ([6]; PDZ DLG1, PDZ Domain 1, 2, titration of the PL peptide, read-out: Peptide Optimal Conc (Kd, dissociation constant)): 5.30
Compound: CC[C@H](C)[C@H](NC(=O)[C@H](CCC(=O)O)NC(=O)[C@H](CO)NC(=O)[C@H](CCC(=O)O)NC(=O)[C@H](CCCNC(=N)N)NC(=O)[C@H](CCCNC(=N)N)NC(=O)[C@H](CC(C)C)NC(=O)[C@@H]1CCCN1C(=O)[C@H](CCCNC(=N)N)NC(=O)[C@@H]1CCCN1C(=O)[C@H](CCC(=O)O)NC(=O)[C@H](CC(C)C)NC(=O)[C@@H]1CCCN1C(=O)[C@@H](NC(=O)[C@H](CO)NC(=O)[C@H](C)NC(=O)[C@H](CCC(N)=O)NC(=O)[C@H](CC(N)=O)NC(=O)[C@H](Cc1c[nH]cn1)NC(=O)[C@H](CC(C)C)NC(=O)CCCC[C@@H]1SC[C@@H]2NC(=O)N[C@@H]21)C(C)C)C(=O)O [Kir2.1 (inwardly rect. K+ channel)] (Biotin-LHNQASVPLEPRPLRRESEI-OH; C-terminus assumed)

Classification [3]: 3 (A450 nm 2-3)
Compound: CC[C@H](C)[C@H](NC(=O)[C@H](Cc1ccc(O)cc1)NC(=O)[C@@H](NC(=O)[C@@H]1CCCN1C(=O)[C@H](CCC(N)=O)NC(=O)[C@H](CCC(=O)O)NC(=O)[C@H](CCC(N)=O)NC(=O)[C@H](C)NC(=O)[C@@H](NC(=O)[C@H](CC(C)C)NC(=O)[C@H](CC(C)C)NC(=O)[C@H](CCCNC(=N)N)NC(=O)[C@H](Cc1ccc(O)cc1)NC(=O)[C@H](CCSC)NC(=O)[C@H](C)NC(=O)[C@H](C)NC(=O)[C@@H]1CCCN1C(=O)[C@H](CCSC)NC(=O)[C@@H](NC(=O)[C@H](CCCCN)NC(=O)CCCC[C@@H]1SC[C@@H]2NC(=O)N[C@@H]21)[C@@H](C)O)[C@@H](C)O)C(C)C)C(=O)O [MINT-1] (Biotin-KTMPAAMYRLLTAQEQPVYI-OH; C-terminus assumed)
